What was measured:
[1] = Tolerability in hens in the efficacy study; type: in vivo; details: 0.5-2 mg fluralaner/kg BW via medicated drinking water
Method: Groups A-D (n=6) were treated with doses of 2, 1 and 0.5 mg fluralaner/kg BW once or 1 mg fluralaner/kg BW twice (0.5 mg/kg BW on 2 occasions).
On D0 (group D additionally on D7), the hens in groups A-D received fluralaner via medicated drinking water. Group E received un-medicated drinking water ad libitum.

[2] = Technological study: fluralaner concentration at drinking nipples of a poultry house water system; type: physicochemical
Method: The study was conducted in a commercial poultry house for approximately 36000 replacement chickens with 4 batteries each with 3 levels. 4 PVC water dead-end pipes, (78 m long) supplied water for each battery.
Drinking nipples (Big Dutchman types “screw nipples” and “Top”, equipped with a single-arm plastic drip cup) were fitted to the water pipes. In this facility the delivery of the concentrated composition to the drinking nipples using both a dosing pump system and a medication tank was evaluated. • a) Dosing Pump • The dosing pump and its stock solution container were installed in a water hose coming from the water supply pipe and ending in a water tank that was metered for […]. • The dosing pump was set for 5% injection rate. The stock solution container was filled with a total of 8.8 L (175×0.05 [5%]). • Once the container was filled, the calculated volume of 193 mL of the concentrated composition was poured into the container and subsequently stirred. • The dosing pump was connected to the water distribution pipe and the pipe system filled with the medicated water. • b) Medication Tank • The medication tank was filled with 175 L of tap water. • The calculated volume of 193 mL of the concentrated composition was poured into the container and subsequently stirred. • The medication tank was connected to the water distribution pipe and the pipe system filled with the medicated water.
No animals were present in the cages. Therefore the water lines were opened every 10 min to mimic a continuous (intermittent) drinking water flow. At each draining 7.3 L of medicated water was allowed to drain at the dead-end side of the pipe.
Samples of medicated water was taken from 6 drinking nipples: the first and last drinking nipple in a drinker line, and from 4 drinking nipples having an equal distance at pre-defined time points, with a maximum of 4 h and analysed for fluralaner concentration.

Cc1cc(C2=NOC(c3cc(Cl)cc(Cl)c3)(C(F)(F)F)C2)ccc1C(=O)NCC(=O)NCC(F)(F)F (centres unmarked) [fluralaner, 4-[5-(3,5-Dichlorophenyl)-5-trifluoromethyl-4,5-dihydroisoxazol-3-yl]-2-methyl-N-[(2,2,2-trifluoro-ethylcarbamoyl)-methyl]-benzamide]
tolerability [1]: well tolerated
Deviation of fluralaner concentration at the drinking nipple from nominal concentration (percent) ([2]; Dosing pump system, Nipple 1, T 30 min): −10%
Deviation of fluralaner concentration at the drinking nipple from nominal concentration (percent) ([2]; Dosing pump system, Nipple 1, T 60 min): −10%
Deviation of fluralaner concentration at the drinking nipple from nominal concentration (percent) ([2]; Dosing pump system, Nipple 1, T 120 min): −9%
Deviation of fluralaner concentration at the drinking nipple from nominal concentration (percent) ([2]; Dosing pump system, Nipple 1, T 180 min): −9%
Deviation of fluralaner concentration at the drinking nipple from nominal concentration (percent) ([2]; Dosing pump system, Nipple 1, T 240 min): −9%
Deviation of fluralaner concentration at the drinking nipple from nominal concentration (percent) ([2]; Dosing pump system, Nipple 2, T 30 min): −9%
Deviation of fluralaner concentration at the drinking nipple from nominal concentration (percent) ([2]; Dosing pump system, Nipple 2, T 60 min): −14%
Deviation of fluralaner concentration at the drinking nipple from nominal concentration (percent) ([2]; Dosing pump system, Nipple 2, T 120 min): −12%
Deviation of fluralaner concentration at the drinking nipple from nominal concentration (percent) ([2]; Dosing pump system, Nipple 2, T 180 min): −9%
Deviation of fluralaner concentration at the drinking nipple from nominal concentration (percent) ([2]; Dosing pump system, Nipple 2, T 240 min): −9%
Deviation of fluralaner concentration at the drinking nipple from nominal concentration (percent) ([2]; Dosing pump system, Nipple 3, T 30 min): −9%
Deviation of fluralaner concentration at the drinking nipple from nominal concentration (percent) ([2]; Dosing pump system, Nipple 3, T 60 min): −10%
Deviation of fluralaner concentration at the drinking nipple from nominal concentration (percent) ([2]; Dosing pump system, Nipple 3, T 120 min): −10%
Deviation of fluralaner concentration at the drinking nipple from nominal concentration (percent) ([2]; Dosing pump system, Nipple 3, T 180 min): −14%
Deviation of fluralaner concentration at the drinking nipple from nominal concentration (percent) ([2]; Dosing pump system, Nipple 3, T 240 min): −14%
Deviation of fluralaner concentration at the drinking nipple from nominal concentration (percent) ([2]; Dosing pump system, Nipple 4, T 30 min): −12%
Deviation of fluralaner concentration at the drinking nipple from nominal concentration (percent) ([2]; Dosing pump system, Nipple 4, T 60 min): −16%
Deviation of fluralaner concentration at the drinking nipple from nominal concentration (percent) ([2]; Dosing pump system, Nipple 4, T 120 min): −14%
Deviation of fluralaner concentration at the drinking nipple from nominal concentration (percent) ([2]; Dosing pump system, Nipple 4, T 180 min): −10%
Deviation of fluralaner concentration at the drinking nipple from nominal concentration (percent) ([2]; Dosing pump system, Nipple 4, T 240 min): −10%
Deviation of fluralaner concentration at the drinking nipple from nominal concentration (percent) ([2]; Dosing pump system, Nipple 5, T 30 min): −12%
Deviation of fluralaner concentration at the drinking nipple from nominal concentration (percent) ([2]; Dosing pump system, Nipple 5, T 60 min): −10%
Deviation of fluralaner concentration at the drinking nipple from nominal concentration (percent) ([2]; Dosing pump system, Nipple 5, T 120 min): −11%
Deviation of fluralaner concentration at the drinking nipple from nominal concentration (percent) ([2]; Dosing pump system, Nipple 5, T 180 min): −10%
Deviation of fluralaner concentration at the drinking nipple from nominal concentration (percent) ([2]; Dosing pump system, Nipple 5, T 240 min): −10%
Deviation of fluralaner concentration at the drinking nipple from nominal concentration (percent) ([2]; Dosing pump system, Nipple 6, T 30 min): −26%
Deviation of fluralaner concentration at the drinking nipple from nominal concentration (percent) ([2]; Dosing pump system, Nipple 6, T 60 min): −10%
Deviation of fluralaner concentration at the drinking nipple from nominal concentration (percent) ([2]; Dosing pump system, Nipple 6, T 120 min): −11%
Deviation of fluralaner concentration at the drinking nipple from nominal concentration (percent) ([2]; Dosing pump system, Nipple 6, T 180 min): −11%
Deviation of fluralaner concentration at the drinking nipple from nominal concentration (percent) ([2]; Dosing pump system, Nipple 6, T 240 min): −10%
Deviation of fluralaner concentration at the drinking nipple from nominal concentration (percent) ([2]; Medication tank system, Nipple 1, T 30 min): −5%
Deviation of fluralaner concentration at the drinking nipple from nominal concentration (percent) ([2]; Medication tank system, Nipple 1, T 60 min): −4%
Deviation of fluralaner concentration at the drinking nipple from nominal concentration (percent) ([2]; Medication tank system, Nipple 1, T 120 min): −4%
Deviation of fluralaner concentration at the drinking nipple from nominal concentration (percent) ([2]; Medication tank system, Nipple 1, T 180 min): −5%
Deviation of fluralaner concentration at the drinking nipple from nominal concentration (percent) ([2]; Medication tank system, Nipple 1, T 240 min): −10%
Deviation of fluralaner concentration at the drinking nipple from nominal concentration (percent) ([2]; Medication tank system, Nipple 2, T 30 min): −7%
Deviation of fluralaner concentration at the drinking nipple from nominal concentration (percent) ([2]; Medication tank system, Nipple 2, T 60 min): −5%
Deviation of fluralaner concentration at the drinking nipple from nominal concentration (percent) ([2]; Medication tank system, Nipple 2, T 120 min): −4%
Deviation of fluralaner concentration at the drinking nipple from nominal concentration (percent) ([2]; Medication tank system, Nipple 2, T 180 min): −5%
Deviation of fluralaner concentration at the drinking nipple from nominal concentration (percent) ([2]; Medication tank system, Nipple 2, T 240 min): −4%
Deviation of fluralaner concentration at the drinking nipple from nominal concentration (percent) ([2]; Medication tank system, Nipple 3, T 30 min): −5%
Deviation of fluralaner concentration at the drinking nipple from nominal concentration (percent) ([2]; Medication tank system, Nipple 3, T 60 min): −4%
Deviation of fluralaner concentration at the drinking nipple from nominal concentration (percent) ([2]; Medication tank system, Nipple 3, T 120 min): −4%
Deviation of fluralaner concentration at the drinking nipple from nominal concentration (percent) ([2]; Medication tank system, Nipple 3, T 180 min): −4%
Deviation of fluralaner concentration at the drinking nipple from nominal concentration (percent) ([2]; Medication tank system, Nipple 3, T 240 min): −4%
Deviation of fluralaner concentration at the drinking nipple from nominal concentration (percent) ([2]; Medication tank system, Nipple 4, T 30 min): −6%
Deviation of fluralaner concentration at the drinking nipple from nominal concentration (percent) ([2]; Medication tank system, Nipple 4, T 60 min): −5%
Deviation of fluralaner concentration at the drinking nipple from nominal concentration (percent) ([2]; Medication tank system, Nipple 4, T 120 min): −4%
Deviation of fluralaner concentration at the drinking nipple from nominal concentration (percent) ([2]; Medication tank system, Nipple 4, T 180 min): −4%
Deviation of fluralaner concentration at the drinking nipple from nominal concentration (percent) ([2]; Medication tank system, Nipple 4, T 240 min): −3%
Deviation of fluralaner concentration at the drinking nipple from nominal concentration (percent) ([2]; Medication tank system, Nipple 5, T 30 min): −8%
Deviation of fluralaner concentration at the drinking nipple from nominal concentration (percent) ([2]; Medication tank system, Nipple 5, T 60 min): −4%
Deviation of fluralaner concentration at the drinking nipple from nominal concentration (percent) ([2]; Medication tank system, Nipple 5, T 120 min): −4%
Deviation of fluralaner concentration at the drinking nipple from nominal concentration (percent) ([2]; Medication tank system, Nipple 5, T 180 min): −4%
Deviation of fluralaner concentration at the drinking nipple from nominal concentration (percent) ([2]; Medication tank system, Nipple 5, T 240 min): −6%
Deviation of fluralaner concentration at the drinking nipple from nominal concentration (percent) ([2]; Medication tank system, Nipple 6, T 30 min): −6%
Deviation of fluralaner concentration at the drinking nipple from nominal concentration (percent) ([2]; Medication tank system, Nipple 6, T 60 min): −6%
Deviation of fluralaner concentration at the drinking nipple from nominal concentration (percent) ([2]; Medication tank system, Nipple 6, T 120 min): −4%
Deviation of fluralaner concentration at the drinking nipple from nominal concentration (percent) ([2]; Medication tank system, Nipple 6, T 180 min): −5%
Deviation of fluralaner concentration at the drinking nipple from nominal concentration (percent) ([2]; Medication tank system, Nipple 6, T 240 min): −4%
fluralaner concentration in the drinking water over time and along the drinking water line ([2]; up to 4 hours, medication tank and dosing pump): remains constant over time and along the drinking water line

Reference: US10456358B2, “Isoxazoline compositions and use thereof in the prevention or treatment of parasite infestations in animals” (Intervet Inc., priority 2013, dated 2019)
